Patent publication US5686637A, “Antifungal agent” (Merck & Co., Inc., priority 1995, dated 1997)
Values after ≈ are worked out from the molar mass of the structure shown.

Columns and labels:
[1] = tested on: C. pseudotropicalis (MY 2099); test: microbroth dilution assay (MIC/MFC), C. pseudotropicalis (MY 2099); format: cell-based, Candida pseudotropicalis; details: Kluyveromyces marxianus, 24 h
Procedure: (§1) In the microbroth dilution assay, microorganisms were selected by streaking a yeast culture on Sabouraud dextrose agar (SDA) incubating for 24-48 hours at 35°-37° C., thereafter selected 3 to 5 characteristic colonies and transferring to a fresh plate and incubating under similar conditions. From the regrowth, 3 to 5 colonies were selected and suspended in. 10 milliliters of YM broth (Dffco) and incubated for 4 hours at 35°-37° C. shaking at 225 rpm. The 4 hour broth cultures were adjusted optically to 86% transmission resulting in a concentration of 1-5×10^6 cfu/ml which was further diluted 1:100 in YNBD (yeast nitrogen base with 1% dextrose) to obtain a concentration of 1-5×10^4 cfu/ml for use as inocula.
(§2) The test compound, Compound I, was prepared as a stock solution of 128 μg/ml in 20% methanol and 75 μl of said solution delivered to each well in column 1 of a 96-well, U-bottomed microtiter plate. The compounds in column 1 were then serially diluted two-fold to yield concentrations from 32 μg/ml to 0.15 μg/ml.
as §2, with “Amphotericin, the control” for “The test”, “compound,” for “compound, Compound I,”, “512” for “128”, “10% DMSO” for “20% methanol”, “128” for “32”, “0.6” for “0.15”
(§3) The plates containing the diluted compounds were then inoculated with 75 μl/well of the appropriate microorganism and incubated for 48 hours at 35°-37° C. with MIC (minimum inhibitory concentration) determinations carried out after 24 hours of incubation. Growth and sterility controls for each organism and sterility checks for the compounds also were carded out.
(§4) After recording MICs at 24 hours, the microtiter plates were shaken gently to resuspend the cells. A 1.5 μl sample was transferred from each well of the 96-well microtiter plate to a single reservoir inoculum plate containing SDA. The inoculated SDA and corresponding microtiter plates were incubated for 24 hours at 35°-37° C. For Cryptococus neoformans, SDA plates were inoculated at 48 hours after recording MICs and incubated 48 hours before reading the MFC. MFC is the lowest concentration of compound at which either no growth or growth of ≤4 colonies occur.

[2] = tested on: C. parapsilosis (MY 1010); test: microbroth dilution assay (MIC/MFC), C. parapsilosis (MY 1010); format: cell-based; details: Lodderomyces parapsilosis, 24 h
Procedure: as §1, §2
as §2, with “Amphotericin, the control” for “The test”, “compound,” for “compound, Compound I,”, “512” for “128”, “10% DMSO” for “20% methanol”, “128” for “32”, “0.6” for “0.15”
as §3, §4

[3] = tested on: Candida albicans (MY 1055); test: microbroth dilution assay (MIC/MFC), Candida albicans (MY 1055); format: cell-based; details: Candida albicans, 24 h
Procedure: as §1, §2
as §2, with “Amphotericin, the control” for “The test”, “compound,” for “compound, Compound I,”, “512” for “128”, “10% DMSO” for “20% methanol”, “128” for “32”, “0.6” for “0.15”
as §3, §4

[4] = tested on: Cryptococcus neoformans (MY 2062); test: microbroth dilution assay (MIC), Cryptococcus neoformans (MY 2062); format: cell-based; details: Cryptococcus neoformans, 24 h, read-out: Minimum Inhibitory Concentration (MIC)
Procedure: as §1
as §2, with “μg/ml. […]” for “μg/ml.”
(§5) After recording MICs at 24 hours, the microtiter plates were shaken gently to resuspend the cells. […] For Cryptococus neoformans, SDA plates were inoculated at 48 hours after recording MICs and incubated 48 hours before reading the MFC. […]

[5] = tested on: C. albicans (CA2); test: microbroth dilution assay (MIC/MFC), C. albicans (CA2); format: cell-based; details: Candida albicans, 24 h
Procedure: as §1, §2
as §2, with “Amphotericin, the control” for “The test”, “compound,” for “compound, Compound I,”, “512” for “128”, “10% DMSO” for “20% methanol”, “128” for “32”, “0.6” for “0.15”
as §3, §4

[6] = tested on: C. topicalis (MY1012); test: microbroth dilution assay (MIC/MFC), C. topicalis (MY1012); format: cell-based; details: 24 h
Procedure: as §1, §2
as §2, with “Amphotericin, the control” for “The test”, “compound,” for “compound, Compound I,”, “512” for “128”, “10% DMSO” for “20% methanol”, “128” for “32”, “0.6” for “0.15”
as §3, §4

[7] = tested on: C. glabrata (MY1381); test: microbroth dilution assay (MIC/MFC), C. glabrata (MY1381); format: cell-based; details: Nakaseomyces glabratus, 24 h
Procedure: as §1, §2
as §2, with “Amphotericin, the control” for “The test”, “compound,” for “compound, Compound I,”, “512” for “128”, “10% DMSO” for “20% methanol”, “128” for “32”, “0.6” for “0.15”
as §3, §4

[8] = tested on: C. guillermondii (MY 1019); test: microbroth dilution assay (MIC/MFC), C. guillermondii (MY 1019); format: cell-based; details: 24 h
Procedure: as §1, §2
as §2, with “Amphotericin, the control” for “The test”, “compound,” for “compound, Compound I,”, “512” for “128”, “10% DMSO” for “20% methanol”, “128” for “32”, “0.6” for “0.15”
as §3, §4

[9] = tested on: S. cerevisiae (MY 2141); test: microbroth dilution assay (MIC/MFC), S. cerevisiae (MY 2141); format: cell-based; details: Saccharomyces cerevisiae
Procedure: as §1
as §2, with “μg/ml. […]” for “μg/ml.”
as §5

[10] = tested on: Aspergillus fumigatus (MF 4839); test: microbroth dilution assay (MIC), Aspergillus fumigatus (MF 4839); format: cell-based; details: Aspergillus fumigatus, 24 h, read-out: Minimum Inhibitory Concentration (MIC)
Procedure: as §1
as §2, with “μg/ml. […]” for “μg/ml.”
as §5

[11] = tested on: C. albicans (CLY539); test: microbroth dilution assay (MIC/MFC), C. albicans (CLY539); format: cell-based; details: Candida albicans, 24 h
Procedure: as §1, §2
as §2, with “Amphotericin, the control” for “The test”, “compound,” for “compound, Compound I,”, “512” for “128”, “10% DMSO” for “20% methanol”, “128” for “32”, “0.6” for “0.15”
as §3, §4

[12] = tested on: C. tropicalis (MY1124); test: microbroth dilution assay (MIC/MFC), C. tropicalis (MY1124); format: cell-based; details: Candida tropicalis, 24 h
Procedure: as §1, §2
as §2, with “Amphotericin, the control” for “The test”, “compound,” for “compound, Compound I,”, “512” for “128”, “10% DMSO” for “20% methanol”, “128” for “32”, “0.6” for “0.15”
as §3, §4

[13] = tested on: A. fumigatus (5668); test: microbroth dilution assay (MIC), A. fumigatus (5668); format: cell-based; details: Aspergillus fumigatus, 24 h, read-out: Minimum Inhibitory Concentration (MIC)
Procedure: as §1
as §2, with “μg/ml. […]” for “μg/ml.”
as §5

[14] = tested on: Saccharomyces cerevisiae (MY 2140); test: microbroth dilution assay (MIC/MFC), Saccharomyces cerevisiae (MY 2140); format: cell-based; details: Saccharomyces cerevisiae, 24 h
Procedure: as §1, §2
as §2, with “Amphotericin, the control” for “The test”, “compound,” for “compound, Compound I,”, “512” for “128”, “10% DMSO” for “20% methanol”, “128” for “32”, “0.6” for “0.15”
as §3, §4

[15] = read-out: Minimum Fungicidal Concentration (MFC)
[16] = read-out: Minimum Inhibitory Concentration (MIC)

Structure (SMILES): C[C@@H]1[C@H](O)[C@@H](C)/C=C/C=C/C=C/C=C/C=C/C=C/C=C/[C@H](O[C@@H]2O[C@H](C)[C@@H](O)[C@H](N)[C@@H]2O)C[C@@H]2O[C@](O)(C[C@@H](O)C[C@@H](O)[C@H](O)CC[C@@H](O)C[C@@H](O)CC(=O)O[C@H]1C)C[C@H](O)[C@H]2C(=O)O [Amphotericin B]
- MFC [1, 15]: 2 µg/mL (≈ 2.16 µM)
- MIC [1, 16]: 2 µg/mL (≈ 2.16 µM)
- MFC [2, 15]: 1 µg/mL (≈ 1.08 µM)
- MIC [2, 16]: 1 µg/mL (≈ 1.08 µM)
- MFC [3, 15]: 1 µg/mL (≈ 1.08 µM)
- MIC [3, 16]: 1 µg/mL (≈ 1.08 µM)
- MIC [4]: 1 µg/mL (≈ 1.08 µM)
- MFC [5, 15]: 1 µg/mL (≈ 1.08 µM)
- MIC [5, 16]: 1 µg/mL (≈ 1.08 µM)
- MFC [6, 15]: 16 µg/mL (≈ 17.3 µM)
- MIC [6, 16]: 16 µg/mL (≈ 17.3 µM)
- MFC [7, 15]: 2 µg/mL (≈ 2.16 µM)
- MIC [7, 16]: 2 µg/mL (≈ 2.16 µM)
- MFC [8, 15]: 2 µg/mL (≈ 2.16 µM)
- MIC [8, 16]: 1 µg/mL (≈ 1.08 µM)
- MIC ([9]; 24 h, 35°-37° C., read-out: Minimum Inhibitory Concentration (MIC)): 1 µg/mL (≈ 1.08 µM)
- MFC ([9]; no growth or ≤4 colonies on SDA after 24 h, read-out: Minimum Fungicidal Concentration (MFC)): 1 µg/mL (≈ 1.08 µM)
- MIC [10]: 2 µg/mL (≈ 2.16 µM)
- MFC [11, 15]: 2 µg/mL (≈ 2.16 µM)
- MIC [11, 16]: 1 µg/mL (≈ 1.08 µM)
- MFC [12, 15]: 2 µg/mL (≈ 2.16 µM)
- MIC [12, 16]: 2 µg/mL (≈ 2.16 µM)
- MIC [13]: 2 µg/mL (≈ 2.16 µM)
- MFC [14, 15]: 1 µg/mL (≈ 1.08 µM)
- MIC [14, 16]: 1 µg/mL (≈ 1.08 µM)
